Some test systems named below: A498; A549; BT-549; DU-145; EKVX; HL-60; HOP-62; Hs-578T; K562; KM12; LOX IMVI; MCF7; MDA-MB-435; NCI-H23; SW-620; T47D; UACC-257; OVCAR-4; RXF 393; HOP-92.
Common to all, as to experiment: NCI tumour cell line growth inhibition, 48 h

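Each compound was tested at five concentrations against cells in 96-well plates for 48 hours. GI50 is the concentration that inhibits growth by half.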 The source made the active and inactive calls. Cut-off read from the data, not from the text of the source: active = GI50 up to about 1.1 µM and inactive = higher.

In the case of `CN1CC2=C(N=C(S)NC2c2ccc(Cl)cc2)/C(=C/c2ccc(Cl)cc2)C1` (configuration not stated), the GI50 is > 10 µM (inactive) in the assay with A498; 19 µM (inactive) in the assay on A549; 20.4 µM (inactive) in the assay with BT-549; 14.1 µM (inactive) in the assay with DU-145; 19.9 µM (inactive) in the assay on EKVX; 14.6 µM (inactive) in the assay with HL-60. Further, the GI50 in the assay with HOP-62 is 19.2 µM (inactive); with Hs-578T, 16.6 µM (inactive); in the assay with K562, 12.6 µM (inactive); in the assay on KM12, 18.5 µM (inactive); in the assay on LOX IMVI, 16.1 µM (inactive); with MCF7, 22 µM (inactive). Further, the GI50 in the assay on MDA-MB-435 is 14.9 µM (inactive); in the assay on NCI-H23, 20 µM (inactive); with SW-620 it was 14.6 µM (inactive); in the assay with T47D it was 15 µM (inactive); in the assay on UACC-257 it was 20 µM (inactive).
Consider `CC(C)OC(=O)C1(C(C)C)CCc2ccc(C(=O)CCC(=O)O)cc21` (configuration not stated), for which the GI50 in the assay on A549, with BT-549, in the assay on DU-145, in the assay on EKVX, in the assay with HL-60 and in the assay with HOP-62 was > 100 µM (inactive) throughout. Besides, the GI50 in the assay with Hs-578T, in the assay on K562, in the assay on KM12, in the assay on LOX IMVI, with MCF7 and with NCI-H23 was > 100 µM (inactive) throughout. Moreover, the GI50 with OVCAR-4, in the assay on RXF 393, in the assay with SW-620, with T47D and in the assay with UACC-257 was > 100 µM (inactive) each time.
`CC(=O)OCCC[C@@H]1C(=C(C)C)CCC2[C@@]1(C)CC[C@@]1(C)C[C@](C)(CCC=C(C)C)CC[C@]21C` (some centres not stated): the GI50 with A498, in the assay with A549, in the assay with BT-549, in the assay on DU-145, in the assay with EKVX and with HL-60 was > 100 µM (inactive) throughout. Further, the GI50 with HOP-62, in the assay on Hs-578T, in the assay with KM12, in the assay with MCF7, with MDA-MB-435 and in the assay on NCI-H23 was > 100 µM (inactive) in each case. Moreover, the GI50 in the assay on OVCAR-4, with SW-620, with T47D and in the assay on UACC-257 was > 100 µM (inactive) throughout.
Take `N#Cc1c(N)n(-c2cccc(C(=O)O)c2)c(=O)c2cc([N+](=O)[O-])ccc12`: the GI50 was > 100 µM (inactive) with A498; 0.505 µM (active) in the assay with A549; > 100 µM (inactive) with BT-549; > 100 µM (inactive) in the assay with DU-145; > 100 µM (inactive) in the assay on HL-60; > 100 µM (inactive) in the assay on HOP-92. In addition, the GI50 in the assay on Hs-578T, in the assay on K562, with KM12, in the assay on LOX IMVI, in the assay on MDA-MB-435 and in the assay on NCI-H23 was > 100 µM (inactive) each time. The GI50 with OVCAR-4, in the assay on SW-620, in the assay on T47D and in the assay on UACC-257 was > 100 µM (inactive) throughout.
Turning to `CC1=NNC(=O)C1C1CC(c2c[nH]c3ccccc23)=NN(C(N)=O)C1=O` (configuration not stated), the GI50 is > 100 µM (inactive) with A498; 64 µM (inactive) with A549; 34.3 µM (inactive) in the assay on BT-549; > 100 µM (inactive) in the assay with DU-145; > 100 µM (inactive) in the assay with EKVX; 29 µM (inactive) in the assay on HL-60. Moreover, the GI50 with HOP-62 is > 100 µM (inactive); in the assay on HOP-92, > 100 µM (inactive); with Hs-578T, 85.1 µM (inactive); in the assay with K562 it was 33 µM (inactive); in the assay with KM12, 28.5 µM (inactive); with LOX IMVI, 62.7 µM (inactive). Besides, the GI50 in the assay with MDA-MB-435 was 56 µM (inactive); in the assay with NCI-H23, 29.9 µM (inactive); with RXF 393 it was 52.1 µM (inactive); with SW-620, 92.9 µM (inactive); in the assay with T47D, 61 µM (inactive); in the assay on UACC-257, > 100 µM (inactive).
`C(=N\c1ccc(-c2nc3ccccc3s2)cc1)/c1ccc[nH]1`: the GI50 in the assay on A498 was 15.7 µM (inactive); with A549, 25.6 µM (inactive); in the assay on BT-549, 17.3 µM (inactive); in the assay on DU-145 it was 17.3 µM (inactive); in the assay with EKVX it was 17.2 µM (inactive); in the assay with HL-60, 16.5 µM (inactive). Further, the GI50 is 12.5 µM (inactive) in the assay with HOP-62; 17.4 µM (inactive) in the assay with HOP-92; 19.7 µM (inactive) in the assay with Hs-578T; 20.4 µM (inactive) with K562; 20.2 µM (inactive) in the assay on KM12; 17.3 µM (inactive) in the assay with LOX IMVI. Further, the GI50 was 19.2 µM (inactive) with MDA-MB-435; 16.8 µM (inactive) in the assay on NCI-H23; 23.8 µM (inactive) in the assay on OVCAR-4; 16 µM (inactive) in the assay on RXF 393; 22.4 µM (inactive) in the assay with SW-620; 13.4 µM (inactive) in the assay with T47D. Besides, the GI50 with UACC-257 is 17.1 µM (inactive).
With `Cc1nc(NC(C)(CO)CO)nc(N/N=C/c2ccc(Cl)cc2)c1C(=O)Nc1ccc(Cl)cc1`, the GI50 with A549 was 77.3 µM (inactive); in the assay with BT-549, > 100 µM (inactive); in the assay on DU-145, > 100 µM (inactive); with EKVX it was > 100 µM (inactive); with HL-60 it was > 100 µM (inactive); with HOP-62, > 100 µM (inactive). For the same compound, the GI50 in the assay on Hs-578T was > 100 µM (inactive); in the assay with K562 it was > 100 µM (inactive); with KM12 it was 86.7 µM (inactive); with LOX IMVI, > 100 µM (inactive); in the assay with MCF7, 51.1 µM (inactive); with MDA-MB-435, > 100 µM (inactive). For the same compound, the GI50 was > 100 µM (inactive) in the assay on NCI-H23; > 100 µM (inactive) with OVCAR-4; 28.4 µM (inactive) in the assay with RXF 393; > 100 µM (inactive) with SW-620; > 100 µM (inactive) in the assay on T47D; > 100 µM (inactive) with UACC-257.
As to `FC(F)(F)c1cccc(COCCN2CCN(Cc3cccc(C(F)(F)F)c3)CC2)c1`, the GI50 in the assay with A498 was 14.9 µM (inactive); in the assay with A549 it was 16.2 µM (inactive); with BT-549, 15.6 µM (inactive); in the assay with DU-145, 17 µM (inactive); in the assay with EKVX, 11.1 µM (inactive); in the assay with HL-60 it was 36.6 µM (inactive). The GI50 in the assay on HOP-62 was 20 µM (inactive); in the assay on Hs-578T it was 19.5 µM (inactive); in the assay on K562, 11.8 µM (inactive); with KM12, 18.1 µM (inactive); in the assay with MCF7, 15.7 µM (inactive); with NCI-H23 it was 17.9 µM (inactive). In addition, the GI50 in the assay on OVCAR-4 was 17.7 µM (inactive); in the assay on SW-620, 13.1 µM (inactive); in the assay with T47D, 16.3 µM (inactive); with UACC-257 it was 17.4 µM (inactive).

The values above are taken from ChEMBL document CHEMBL1201862, “PubChem BioAssay data set” (2004).
